Measured values as given in patent publication US6444251B1, “Sweetener compositions containing aspartame and aspartame derivative” (Ajinomoto Co., Inc., priority 1997, dated 2002).
Residues, ends and D or L forms follow the SMILES beside them.

Tests used:
[1] = cited from earlier work; for sweetening potency: relative to sucrose
[2] = Quality of sweetness (early taste, later taste, astringency) in comparison to sucrose; details: for early taste / later taste: determined in comparison to sucrose
Method: Early taste and late taste are determined in comparison to sucrose. For example, a sweetener, when put in the mouth, can taste sweet as early as sucrose or later than sucrose.

Row | Compound | sweetening potency [1] | early taste [2] | later taste [2] | sweetening potency (in words) ([1]; as shown in French Patent No. 2697844) | astringency (astringent taste) [2] | quality of sweetness ([2]; compared to sucrose / single ingredients)
1 | COC(=O)[C@H](Cc1ccccc1)NC(=O)[C@@H](N)CC(=O)O [APM, aspartame] (H-Asp-Phe-OMe) | about 200 times that of sucrose | weak in early taste | strong in later taste | – | – | –
2 | COC(=O)[C@H](Cc1ccccc1)NC(=O)[C@H](CC(=O)O)NCCC(C)(C)C [N-(3,3-dimethylbutyl)-APM, N-[N-(3,3-dimethylbutyl)-L-α-aspartyl]-L-phenylalanine methyl ester] | 10,000 times that of sucrose | extremely weak | extremely strong | markedly improved sweetening potency | strong in astringency | badly balanced
